From paper PMC4729137, “Functional analysis of androgen receptor mutations that confer anti-androgen resistance identified in circulating cell-free DNA from prostate cancer patients” (Genome Biology, 2016)
Read-outs that look alike come from different tables or passages of the source.

Experiments:
[1] = serum of prostate cancer patients, cited from earlier work
24 AR mutants = assay: AR inhibition luciferase assay, panel of all 24 AR mutants; format: cell-based, human; conditions: all tested AR mutants; Additional file 4: Table S2
From the text: Full-length human AR (WT-AR) was encoded on a pcDNA3.1 expression plasmid (Life technologies). The LBD point mutations (single and multiple) were generated using the QuikChange II Site-Directed Mutagenesis Kit (Agilent Technologies) as per manufacturer’s instructions using WT-AR as the template. The mutagenic oligonucleotide primers were designed individually with the desired mutation in the middle of the primer with approximately 10 to 15 bases of correct sequence on both sides.
PC3 cells were seeded and transfected as described above. […] A non-stimulated/no R1881 control was used. After 24 h, cells were lysed and AR-dependent luciferase activity was quantified. Each concentration was assayed in quadruplicate n = 4, with a biological replicate of n = 3. Results were averaged and normalized by expressing them as a percentage of WT AR activity.

BF3 pocket of AR-LBD = biological target: T1, BF3 pocket of AR-LBD (Homo sapiens, UniProt P10275); assay: Lanthascreen TR-FRET displacement of FITC-BAG1L peptide; format: binding; conditions: compounds 0.41 to 100 μM
T1 construct: the (His)6-tagged AR-LBD was prepared at 4X final concentration in the buffer
T1 sequence (P10275 669-900 limits assumed): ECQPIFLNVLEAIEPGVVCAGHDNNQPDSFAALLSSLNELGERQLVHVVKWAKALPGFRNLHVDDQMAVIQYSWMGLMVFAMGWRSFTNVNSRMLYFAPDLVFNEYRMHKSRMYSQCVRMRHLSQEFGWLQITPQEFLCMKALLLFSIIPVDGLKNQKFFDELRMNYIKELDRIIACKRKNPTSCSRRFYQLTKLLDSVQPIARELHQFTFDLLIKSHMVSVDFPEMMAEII
Method: Compounds were tested in the range of 0.41 to 100 μM in a final concentration of 1.5 % DMSO. The protein AR-LBD, the FITC-BAG1L peptide, and the LanthaScreen® Elite Terbium-labeled anti-His-tag antibody (Life Technologies, PV5863) were used at final concentrations of 100 nM, 500 nM, and 5 nM, respectively. […] Mix B contained 4X FITC-BAG1L peptide in 2 % DMSO. A three-fold serial dilution of the compounds was prepared at 100X final concentration in DMSO. […] In a black flat bottom 384-well plate 5 μL of Mix A, 5 μL of Mix B, and 10 μL of Mix C were added.

## CC(O)(CS(=O)(=O)c1ccc(F)cc1)C(=O)Nc1ccc(C#N)c(C(F)(F)F)c1 (stereo not shown) [Bicalutamide, bicalutamide]
[1]
  Steady state concentration in serum: 8.9 µg/mL
[1]; converted from μg/mL
  Steady state concentration in serum: approximately 20 μM

## C[C@]12CC[C@H](O)CC1=CC[C@@H]1[C@@H]2CC[C@]2(C)C(c3cccnc3)=CC[C@@H]12 [abiraterone]
24 AR mutants
  Activation of AR mutants (in words): none of the tested mutants were activated

## Brc1cn(-c2csc(N3CCOCC3)n2)c(Br)n1 [VPC-14449]
BF3 pocket of AR-LBD
  Displacement of FITC labeled BAG1L peptide (residues 1-20) from the BF3 pocket of AR: not able to displace
